In data set [1] the test system is Staphylococcus aureus. The experiment in a line: Antibacterial activity against methicillin-resistant Staphylococcus aureus N315 assessed as decrease in bacterial growth incubated for 18 hrs by broth microdilution method. The data set is classed as functional.
The subject of data set [2] is Pseudomonas aeruginosa. The experiment in a line: Antibacterial activity against Pseudomonas aeruginosa assessed as decrease in bacterial growth incubated for 18 hrs by broth microdilution method. It is filed as functional. On the technique in general: In broth dilution the organism is exposed to a series of concentrations in liquid medium.
Data set [3] has as its system Klebsiella pneumoniae. The experiment in a line: Antibacterial activity against Klebsiella pneumoniae assessed as decrease in bacterial growth incubated for 18 hrs by broth microdilution method. It is filed as functional.
In data set [4] the test system is Staphylococcus aureus. The experiment in a line: Antibacterial activity against Staphylococcus aureus ATCC 25923 assessed as decrease in bacterial growth incubated for 18 hrs by broth microdilution method. It is filed as functional.
The test system of data set [5] is Pseudomonas aeruginosa. The experiment in a line: Antibacterial activity against Pseudomonas aeruginosa ATCC 27853 assessed as decrease in bacterial growth incubated for 18 hrs by broth microdilution method. The data set is classed as functional.
For data set [6], the system named is Staphylococcus aureus. The experiment in a line: Antibacterial activity against Staphylococcus aureus ATCC 29213 assessed as decrease in bacterial growth incubated for 18 hrs by broth microdilution method. It is filed as functional.
Data set [7] relates to Escherichia coli. The experiment in a line: Antibacterial activity against Escherichia coli assessed as decrease in bacterial growth incubated for 18 hrs by broth microdilution method. It is filed as functional.
Data set [8] relates to Enterococcus faecalis. The experiment in a line: Antibacterial activity against Enterococcus faecalis assessed as decrease in bacterial growth incubated for 18 hrs by broth microdilution method. It is filed as functional.
Data set [9] relates to Escherichia coli. The experiment in a line: Antibacterial activity against Escherichia coli ATCC 25922 assessed as decrease in bacterial growth incubated for 18 hrs by broth microdilution method. It is filed as functional.
The nature of data set [10]: Aqueous solubility of the compound in saline. It is filed as physicochemical.
The subject of data set [11] is Acinetobacter baumannii. The experiment in a line: Antibacterial activity against Acinetobacter baumannii assessed as decrease in bacterial growth incubated for 18 hrs by broth microdilution method. The data set is classed as functional.
Data set [12] relates to Staphylococcus aureus. The experiment in a line: Antibacterial activity against Staphylococcus aureus assessed as decrease in bacterial growth incubated for 18 hrs by broth microdilution method. The data set is classed as functional.

SMILES strings stand for the structures.

A word on the MIC: it is the lowest concentration that inhibits growth of the organism. Usually solubility stands for how much of the substance goes into solution per volume. A lower solubility goes with little dissolved substance. For `COc1ccc2cc3[n+](cc2c1OCC(O)Cn1ccnc1-c1ccccc1)CCc1cc2c(cc1-3)OCO2.[Br-]` (centres undefined), the MIC was determined as 7 µM in data set [1]; 106 µM in data set [2]; 53 µM in data set [3]; 53 µM in data set [4]; 106 µM in data set [5]; 53 µM in [6]. In addition, the MIC in data set [7] worked out at 27 µM; in data set [8] it was 106 µM; in data set [9] it was 106 µM; in [11], 27 µM; in data set [12], 106 µM. Moreover, the solubility in data set [10] was 701 µM.

For `COc1ccc2cc3[n+](cc2c1OC)CCc1cc2c(cc1-3)OCO2` [BERBERINE], the MIC is 689 µM in [1]; 344 µM in data set [2]; 172 µM in [3]; 344 µM in data set [4]; 344 µM in data set [5]; 172 µM in data set [6]. Further, the MIC in [7] was 344 µM; in data set [8] it was 344 µM; in data set [9], 172 µM; in data set [11], 1380 µM; in data set [12], 344 µM. The compound also displayed a solubility in data set [10] of 751 µM.

For the compound `COc1ccc2cc3[n+](cc2c1OCC(O)Cn1cnc([N+](=O)[O-])c1)CCc1cc2c(cc1-3)OCO2.[Br-]` (centres undefined), the MIC in [1] stood at 56 µM; in data set [2], 112 µM; in data set [3], 56 µM; in [4], 112 µM; in data set [5] it was 56 µM; in data set [6], 56 µM. Further, the MIC in data set [7] was determined as 28 µM; in data set [8] it was 112 µM; in data set [9], 112 µM; in data set [11], 112 µM; in data set [12], 112 µM. In data set [10], the solubility was 936 µM.

For `COc1ccc2cc3[n+](cc2c1OCC(O)CN1CCCC1)CCc1cc2c(cc1-3)OCO2.[Br-]` (centres undefined), the MIC in data set [1] came to 121 µM; in [2] it was 121 µM; in [3] it was 242 µM; in [4] it was 121 µM; in data set [5] it was 121 µM; in data set [6], 121 µM. Further, the MIC in [7] is 242 µM; in data set [8] it was 121 µM; in [9], 121 µM; in [11] it was 121 µM; in [12], 60 µM. The compound further showed a solubility in data set [10] of 2340 µM.

With `COc1ccc2cc3[n+](cc2c1OCC(O)Cn1cnc2cc(Br)ccc21)CCc1cc2c(cc1-3)OCO2.[Br-]` (centres undefined), the MIC is 24 µM in [1]; 98 µM in [2]; 24 µM in [3]; 98 µM in [4]; 98 µM in data set [5]; 98 µM in data set [6]. In addition, the MIC in [7] came to 49 µM; in data set [8], 98 µM; in data set [9], 98 µM; in [11] it was 98 µM; in data set [12] it was 98 µM. Besides, in data set [10], the concentration in solution (solubility) was 774 µM.

For `COc1ccc2cc3[n+](cc2c1OCC(O)CSc1nccn1C)CCc1cc2c(cc1-3)OCO2.[Br-]` (centres undefined), the minimal inhibitory concentration (MIC) was 56 µM in data set [1]; 112 µM in [2]; 112 µM in [3]; 56 µM in data set [4]; 112 µM in [5]; 112 µM in data set [6]. Also, the MIC in data set [7] amounted to 28 µM; in [8], 56 µM; in data set [9] it was 112 µM; in [11], 56 µM; in [12], 112 µM. The compound further showed a solubility in [10] of 791 µM.

`COc1ccc2cc3[n+](cc2c1OCC(O)Cn1nnnc1C)CCc1cc2c(cc1-3)OCO2.[Br-]` (centres undefined): the MIC was found to be 121 µM in [1]; 121 µM in [2]; 121 µM in data set [3]; 61 µM in data set [4]; 121 µM in data set [5]; 61 µM in data set [6]. Besides, the MIC in data set [7], in [8], in data set [9], in data set [11] and in data set [12] was 121 µM throughout. In addition, the concentration in solution in data set [10] (solubility) was 2150 µM.

On to `COc1ccc2cc3[n+](cc2c1OCC(O)Cn1cc(C=O)c2ccccc21)CCc1cc2c(cc1-3)OCO2.[Br-]` (centres undefined), for which the MIC in [1] was found to be 106 µM; in data set [2] it was 106 µM; in data set [3] it was 106 µM; in data set [4], 53 µM; in [5], 27 µM; in data set [6], 53 µM. In addition, the MIC in [7] turned out to be 53 µM; in data set [8], 53 µM; in data set [9], 53 µM; in data set [11], 106 µM; in data set [12], 53 µM. Besides, in [10], the solubility came out at 790 µM.

On to `COc1ccc2cc3[n+](cc2c1OCC(O)CSc1nnc(C)s1)CCc1cc2c(cc1-3)OCO2.[Br-]` (centres undefined), for which the MIC in data set [1], in data set [2], in [3], in [4], in [5] and in data set [6] was 108 µM throughout. Moreover, the MIC in [7], in data set [8], in [9], in [11] and in data set [12] was 108 µM throughout. The solubility in data set [10] was found to be 1180 µM.

On to `COc1ccc2cc3[n+](cc2c1OCC(O)Cn1nnc2ccccc21)CCc1cc2c(cc1-3)OCO2.[Br-]` (centres undefined), for which the MIC was found to be 111 µM in data set [1]; 111 µM in [2]; 111 µM in data set [3]; 55 µM in [4]; 111 µM in data set [5]; 55 µM in data set [6]. For the same compound, the MIC in data set [7], in data set [8], in [9], in data set [11] and in [12] was 111 µM in each case. Besides, the solubility in data set [10] turned out to be 1720 µM.

Take `COc1ccc2cc3[n+](cc2c1OCC(O)Cn1cnc2ccccc21)CCc1cc2c(cc1-3)OCO2.[Br-]` (centres undefined): the MIC in [1] amounted to 56 µM; in data set [2] it was 111 µM; in [3] it was 56 µM; in data set [4] it was 56 µM; in data set [5], 56 µM; in data set [6], 56 µM. Also, the MIC stood at 28 µM in data set [7]; 56 µM in data set [8]; 56 µM in data set [9]; 56 µM in data set [11]; 111 µM in data set [12]. This compound also returned a solubility in [10] of 1720 µM.

As to `COc1ccc2cc3[n+](cc2c1OCC(O)CSc1nnnn1C)CCc1cc2c(cc1-3)OCO2.[Br-]` (centres undefined), the minimal inhibitory concentration (MIC) in data set [1] amounted to 56 µM; in data set [2], 111 µM; in [3], 111 µM; in data set [4], 56 µM; in [5], 111 µM; in data set [6] it was 111 µM. Moreover, the minimum inhibitory concentration (MIC) in data set [7] stood at 28 µM; in data set [8], 56 µM; in data set [9], 111 µM; in [11] it was 56 µM; in data set [12], 111 µM. Besides, in data set [10], the solubility worked out at 992 µM.

Turning to `CCN(CCO)CC(O)COc1c(OC)ccc2cc3[n+](cc12)CCc1cc2c(cc1-3)OCO2.[Br-]` (centres undefined), the MIC in data set [1] stood at 468 µM; in [2] it was 468 µM; in data set [3], 468 µM; in [4], 468 µM; in [5], 468 µM; in data set [6], 234 µM. In addition, the MIC in data set [7] turned out to be 234 µM; in data set [8] it was 468 µM; in data set [9], 234 µM; in data set [11], 468 µM; in data set [12], 468 µM. The solubility in data set [10] is 3720 µM.

As for `COc1ccc2cc3[n+](cc2c1OCC(O)CSc1nc[nH]n1)CCc1cc2c(cc1-3)OCO2.[Br-]` (centres undefined), the MIC in data set [1] was found to be 57 µM; in data set [2], 114 µM; in data set [3], 57 µM; in [4], 114 µM; in data set [5] it was 114 µM; in data set [6], 114 µM. The MIC in data set [7] is 57 µM; in data set [8], 114 µM; in [9], 114 µM; in data set [11] it was 114 µM; in [12], 114 µM. Also, in [10], the solubility was found to be 801 µM.

Consider `COc1ccc2cc3[n+](cc2c1OCC(O)Cn1ccnc1)CCc1cc2c(cc1-3)OCO2.[Br-]` (centres undefined), for which the minimum inhibitory concentration (MIC) in data set [1] is 61 µM; in [2], 124 µM; in data set [3], 61 µM; in data set [4], 124 µM; in data set [5] it was 124 µM; in [6], 124 µM. Also, the MIC was 61 µM in data set [7]; 124 µM in data set [8]; 124 µM in data set [9]; 61 µM in data set [11]; 124 µM in data set [12]. In addition, the solubility in data set [10] amounted to 1800 µM.

`COc1ccc2cc3[n+](cc2c1OCC(O)Cn1cnnc1)CCc1cc2c(cc1-3)OCO2.[Br-]` (centres undefined): the MIC in data set [1] amounted to 243 µM; in data set [2], 243 µM; in [3] it was 121 µM; in data set [4], 243 µM; in data set [5] it was 121 µM; in data set [6], 243 µM. Besides, the MIC in data set [7] was found to be 121 µM; in data set [8], 243 µM; in data set [9], 243 µM; in [11], 243 µM; in data set [12] it was 243 µM. This compound also had a solubility in data set [10] of 1100 µM.

With `COc1ccc2cc3[n+](cc2c1OCC(O)CN1CCOCC1)CCc1cc2c(cc1-3)OCO2.[Br-]` (centres undefined), the MIC in [1] came to 469 µM; in data set [2], 469 µM; in data set [3], 469 µM; in data set [4], 469 µM; in data set [5] it was 469 µM; in data set [6], 235 µM. In addition, the MIC turned out to be 235 µM in data set [7]; 469 µM in [8]; 235 µM in data set [9]; 469 µM in data set [11]; 469 µM in [12]. The solubility in [10] stood at 2190 µM.

(Values after ChEMBL document CHEMBL5038640, “Natural Berberine-derived Azolyl Ethanols as New Structural Antibacterial Agents against Drug-Resistant Escherichia coli” (J Med Chem, 2022).)
